Experimental data reported in patent US12723064B2, “Treating Alzheimer's disease” (Yeda Research and Development Co. Ltd., priority 2020, dated 2026).
“Also recorded” adds a separate entry of the source.

Tests used:
APP-Tau binding = target: T1, APP-Tau binding (Homo sapiens, UniProt P10636); assay: ELISA: peptide inhibition of Tau and APP protein binding; conditions: peptides or combinations 1 μg/ml, four hours at RT before APP protein; anti Aß detection
T1 construct: purchased Bio-Legend US
Experimental: An ELISA plate (96 wells) was coated with Tau protein 1 μg/ml in bicarbonate PH=8.2 50 μl/well, then incubated overnight at 4° C. Peptides and their combinations were also incubated overnight at 4° C. in PBS 1 μg/ml. The next day, the plate was washed 3× with PBS and blocked with 3% BSA/PBS for two hours at RT. The plate was washed again 3× with PBS and peptides or their combinations 50 ul/well were added for four hours at RT. The plate was washed again 3× with PBS and APP protein, 1 μg/ml 50 μl/well was added for ON incubation at 4° C. The next day, the plate was washed 3× with PBS, following which anti Aß 1-16 (1 mg/ml) was added (1:500 dilution 50 μl/well) for two hours at RT. The plate was washed again and anti-mouse HRP antibodies (1:10,000 dilution in PBS 1% BSA) added at 50 μl/well. Color reaction was stopped with 50 μl/well of 1M H2S04 and read at 0.D. 450.

mice = assay: Y maze behavior test of APP1 peptide flexibly linked to Tau peptide; type: in vivo; conditions: treated mice vs control treated mice (PBS), FIG. 6
From the text: The Y-maze test (45) consists of two trials, first “training” and second “retention”, separated by an inter-trial interval (ITI). Each arm of the Y-maze was equipped with a guillotine door that could be operated manually. The three identical arms were randomly designated as follows: the “start” (steam) arm, in which the mouse began to explore the maze (always open); the “Novel” arm, which was closed off during the first trial, but open in the second one; and the “other” arm (always open). The first (training) trial lasted five minutes and allowed the mouse to explore only two arms (“start” and “other”) of the maze. Access to the third (“Novel”) arm was blocked. The second trial (retention) was conducted after a two minute ITL. During this three minute trial, all three arms were accessible. The mouse was returned to the same starting arm and was allowed to explore all three arms. Retention was scored as a preferential index to the “Novel” arm, that was calculated as follows: time spent in the “Novel” arm minus the time spent in the old arm divided by the sum of time spent in both arms (46).
An additional experiment was carried out testing the effects of the APP1 peptide flexibly linked to the TAU peptide on behavior as tested in the Y maze.

hippocampus = assay: Number of elements and % of area in the hippocampus (Table 3); type: in vivo, mice
Experimental: Mice were sacrificed (trans-cardially punctured, and saline-perfused). The right brain hemisphere of each mouse was stored at −70° C. to quantify Aβ levels. The left hemispheres were fixed (4% paraformaldehyde) and prepared for paraffin blocks which were cut into six micron sagittal sections and used for histological staining and examination. Sagittal brain sections were stained with Congo red dye (Sigma-Aldrich) and visualized by fluorescence microscopy. Quantification of amyloid depositions was done for the whole hippocampal area in a blinded fashion using Imaging Research software from the National Institutes of Health in an unbiased stereological approach.

Tau = conditions: previously reported (19); cited from earlier work

T1 sequence (P10636 1-441 isoform P10636-8): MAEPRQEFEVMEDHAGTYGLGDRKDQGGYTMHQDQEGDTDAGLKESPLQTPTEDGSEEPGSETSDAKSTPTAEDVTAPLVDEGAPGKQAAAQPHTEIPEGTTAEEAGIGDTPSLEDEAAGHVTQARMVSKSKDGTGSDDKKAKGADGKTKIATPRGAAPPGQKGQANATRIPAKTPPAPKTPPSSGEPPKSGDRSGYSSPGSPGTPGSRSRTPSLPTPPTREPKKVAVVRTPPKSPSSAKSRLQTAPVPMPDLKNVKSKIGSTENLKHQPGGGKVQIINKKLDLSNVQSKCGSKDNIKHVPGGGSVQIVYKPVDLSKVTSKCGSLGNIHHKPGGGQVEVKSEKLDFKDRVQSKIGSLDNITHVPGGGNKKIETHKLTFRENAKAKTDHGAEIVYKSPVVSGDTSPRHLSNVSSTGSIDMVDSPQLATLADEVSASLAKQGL

Sequence: GLGDRKDQGGYTMHQD [Tau1, synthetic peptide from N-terminal end of Tau protein (residues 19-34)]
- inhibition of APP protein binding to Tau coated plate (APP-Tau binding): not inhibited

Sequence: HFQKAKERLEAKHRERMSQVMRE [APP1, synthetic peptide from APP protein, APP1 (390-412)]
- inhibition of APP protein binding to Tau coated plate (APP-Tau binding): significant but partial inhibition; also recorded: significant, but partial inhibition

Sequence: HFQKAKERLEAKHRERMSQVMREGGGGSGGGGSGGGGSGLGDRKDQGGYTMHQD (example of a peptide which comprises an APP derived peptide linked by a flexible peptide linker to a TAU derived peptide)
- Y maze preferential index (cognitive ability) (mice): improve
- % of area (hippocampus): 1.9%
- Number of elements (hippocampus): 112

Sequence: ATVIVITLVMLKKKQYTS [APP2, reference compound]
- inhibition of APP protein binding to Tau coated plate (APP-Tau binding): not inhibited
- binding to Tau (Tau): bind Tau
